# Laboratory results published in patent publication US4616025A, “Thiazolidine derivatives, process for the preparation and pharmaceutical compositions thereof” (Richter Gedeon Vegyeszeti Gyar RT, priority 1983, dated 1986).
# Columns and labels:
# [1] = test system: indomethacin-induced non-fatal intestinal ulceration; assay: Indomethacin-induced (7.5 mg/kg p.o.) non-fatal intestinal ulceration, post-treatment, inflation technique; assay type: in vivo, rat (H-Wistar)
# Description: (§1) To evaluate the development of intestinal ulcers the so-called inflation technique by Ezer and Szporny (J. Pharm. Pharmacol. 27, 866 (1975)) was employed. By this method the progress of ulceration can be monitored quantitatively. The tensile strength of the intestinal wall expressed in mmHg weakens gradually parallel with the progress of ulceration.
# (b) Indomethacin-induced non-fatal ulceration
# Non-fasted H-Wistar rats weighing 120 to 150 g each were administered 7.5 mg/kg indomethacin orally, to induce non-fatal intestinal ulceration. 4, 24 and 48 hours, respectively, after the indomethacin treatment the animals were treated with the test material orally. The animals were killed 24 hours after the last treatment and 72 hours after the ulcer-induction performed with indomethacin, respectively. Ulceration was evaluated by the inflation technique.
# [2] = test system: intestinal ulceration induced by indomethacin; details: literature; cited from earlier work
# [3] = test system: indomethacin-induced intestinal ulceration; assay: Indomethacin-induced fatal intestinal ulceration (15 mg/kg p.o.), inflation technique; assay type: in vivo, rat (female H-Wistar); details: indomethacin 15 + 150 mg/kg p.o.
# Description: Indomethacin-induced intestinal ulceration
# Of the non-steroidal antiinflammatory agents indomethacin has not only a gastric-ulcer inducing side-effect but may also cause serious intestinal ulceration. Depending on the dose, the intestinal ulceration may be fatal, peritonitis due to intestinal perforations kills the animals.
# (a) Indomethacin-induced fatal intestinal ulceration
# Non-fasted, female H-Winstar rats, weighing 120-150 g each were treated orally with a 15 mg/kg dose of indomethacin (in Tween 80 suspension). […] Under these conditions it requires about 48 to 72 hours to detect intenstinal ulceration.
# as §1
# [4] = test system: gastric necrosis induced by absolute alcohol; assay: Gastric necrosis induced by absolute alcohol (cytoprotection); assay type: in vivo, rat (female H-Wistar)
# Description: Gastric necrosis induced by absolute alcohol
# Water was allowed ad libitum. The compounds to be tested were administered orally, 30 minutes prior to the administration of 0.5 ml of ethanol/100 g of body weight through a canula. Two hours later the animals were killed by overdosing ether. Stomachs were removed and opened along the major curvature. […] Degree of the cytoprotection was expressed in % related to the control.
# ulceration = details: rheumatic patients simultaneously suffering from ulceration; cited from earlier work
structure (smiles),measurement,setting,value
"CN/C(=N/CCSCc1nc[nH]c1C)NC#N [Cimetidine, N-cyano-N'-methyl-N""-2-[(5-methyl-imidazole-4-yl)-methylthio]-ethyl-guanidine, reference compound]",T.s. of intestinal wall 72 hours after indomethacin treatment,"[1]; 7.5 + 3 × 50 mg/kg p.o., 4, 24, 48 hours after indomethacin",184 ± 7 mm Hg
same,T.s. of intestinal wall 72 hours after indomethacin treatment,"[1]; 7.5 + 3 × 100 mg/kg p.o., 4, 24, 48 hours after indomethacin",197 ± 10 mm Hg
same,"Non-fatal intestinal ulceration post-treatment, in words","[1]; post-treatment 4, 24 and 48 hours after indomethacin 7.5 mg/kg p.o.",ineffective
same,"Indomethacin-induced intestinal ulceration, in words",[2],cannot inhibit intestinal ulceration induced by indomethacin
same,Intestinal wall resistency in % of normal,[3],21 % of normal
same,T.s. of intestinal wall 72 hours after treatment,[3],47 ± 25 mm Hg
same,Cytoprotection,[4]; 6.0 mg/kg p.o.,44%
same,Length of average lesion,[4]; 6.0 mg/kg p.o.,46.0 ± 10 mm/stomach
same,Cytoprotection,[4]; 12.0 mg/kg p.o.,24%
same,Length of average lesion,[4]; 12.0 mg/kg p.o.,63.0 ± 18 mm/stomach
same,Cytoprotection,[4]; 25.0 mg/kg p.o.,33%
same,Length of average lesion,[4]; 25.0 mg/kg p.o.,55.0 ± 12 mm/stomach
same,Cytoprotection,[4]; 50.0 mg/kg p.o.,59%
same,Length of average lesion,[4]; 50.0 mg/kg p.o.,34.0 ± 10 mm/stomach
same,Cytoprotection,[4]; 100.0 mg/kg p.o.,43%
same,Length of average lesion,[4]; 100.0 mg/kg p.o.,47.0 ± 16 mm/stomach
same,Outcome of simultaneous administration of cimetidine and indomethacin,ulceration,perforation in rheumatic patients
